Target: Beta-lactamase TEM (Escherichia coli, UniProt P62593)
Assay: ChEBML_39213
Method: Beta-Lactamase inhibition activity after 15 min of pre-incubation with the enzyme isolated from Escherichia coli 205 TEM

Sequence of Beta-lactamase TEM (P62593 whole entry): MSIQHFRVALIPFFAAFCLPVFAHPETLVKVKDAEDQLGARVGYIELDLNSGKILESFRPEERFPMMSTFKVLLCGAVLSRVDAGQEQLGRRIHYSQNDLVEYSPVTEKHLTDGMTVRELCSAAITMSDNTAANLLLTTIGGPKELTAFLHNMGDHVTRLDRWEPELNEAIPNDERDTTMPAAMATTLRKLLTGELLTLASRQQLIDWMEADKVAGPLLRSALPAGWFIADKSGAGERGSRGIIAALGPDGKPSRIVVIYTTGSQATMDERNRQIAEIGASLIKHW

With `COC1=C(C(=O)O)N2C(=O)[C@H]([C@@H](C)O)[C@H]2C1` [Potassium; (5R,6S)-6-((R)-1-hydroxy-ethyl)-3-methoxy-7-oxo-1-aza-bicyclo[3.2.0]hept-2-ene-2-carboxylate] the IC50 was 340 µM.
